Assay [1] addresses T1, Mitogen-activated protein kinase kinase kinase 5 (Homo sapiens) (UniProt Q99683).
T1 sequence (whole entry): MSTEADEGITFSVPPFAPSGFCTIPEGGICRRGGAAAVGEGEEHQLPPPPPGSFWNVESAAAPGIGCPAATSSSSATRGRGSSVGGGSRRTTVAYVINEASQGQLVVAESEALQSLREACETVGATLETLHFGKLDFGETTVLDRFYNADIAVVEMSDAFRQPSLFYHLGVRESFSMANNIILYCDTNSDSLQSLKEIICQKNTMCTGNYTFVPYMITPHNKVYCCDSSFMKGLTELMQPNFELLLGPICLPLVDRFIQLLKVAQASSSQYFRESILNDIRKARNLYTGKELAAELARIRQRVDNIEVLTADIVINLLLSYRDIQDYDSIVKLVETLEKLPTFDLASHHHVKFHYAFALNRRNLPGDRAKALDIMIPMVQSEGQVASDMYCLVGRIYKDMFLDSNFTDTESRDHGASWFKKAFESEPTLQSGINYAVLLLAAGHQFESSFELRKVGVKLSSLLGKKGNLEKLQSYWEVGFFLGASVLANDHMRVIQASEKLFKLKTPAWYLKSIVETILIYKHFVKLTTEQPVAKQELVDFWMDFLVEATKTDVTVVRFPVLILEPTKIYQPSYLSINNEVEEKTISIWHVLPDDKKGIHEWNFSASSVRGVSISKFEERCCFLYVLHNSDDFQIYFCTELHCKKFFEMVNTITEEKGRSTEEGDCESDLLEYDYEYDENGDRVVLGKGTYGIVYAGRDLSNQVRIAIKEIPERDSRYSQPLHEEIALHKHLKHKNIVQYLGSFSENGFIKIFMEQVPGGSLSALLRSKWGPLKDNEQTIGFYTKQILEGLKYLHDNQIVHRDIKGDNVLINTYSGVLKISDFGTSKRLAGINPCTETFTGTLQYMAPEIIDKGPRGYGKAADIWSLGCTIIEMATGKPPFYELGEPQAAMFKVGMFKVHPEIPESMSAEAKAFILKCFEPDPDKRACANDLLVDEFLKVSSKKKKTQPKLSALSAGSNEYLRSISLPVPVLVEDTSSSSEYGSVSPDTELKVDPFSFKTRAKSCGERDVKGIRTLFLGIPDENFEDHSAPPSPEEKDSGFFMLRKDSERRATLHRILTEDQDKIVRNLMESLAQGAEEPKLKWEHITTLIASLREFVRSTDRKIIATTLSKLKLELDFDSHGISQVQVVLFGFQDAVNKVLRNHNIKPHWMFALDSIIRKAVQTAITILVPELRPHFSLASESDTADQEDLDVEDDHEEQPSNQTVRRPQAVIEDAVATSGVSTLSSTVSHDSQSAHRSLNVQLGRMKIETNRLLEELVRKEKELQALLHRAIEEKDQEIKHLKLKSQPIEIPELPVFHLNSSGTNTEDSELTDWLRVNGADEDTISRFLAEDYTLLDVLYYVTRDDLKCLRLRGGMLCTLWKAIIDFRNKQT
In words: Inhibition of human ASK1 at 18.6 nM by HotSpot assay relative to control.

Assay [2] deals with T2, Ephrin type-A receptor 1 (Homo sapiens) (UniProt P21709).
T2 sequence (whole entry): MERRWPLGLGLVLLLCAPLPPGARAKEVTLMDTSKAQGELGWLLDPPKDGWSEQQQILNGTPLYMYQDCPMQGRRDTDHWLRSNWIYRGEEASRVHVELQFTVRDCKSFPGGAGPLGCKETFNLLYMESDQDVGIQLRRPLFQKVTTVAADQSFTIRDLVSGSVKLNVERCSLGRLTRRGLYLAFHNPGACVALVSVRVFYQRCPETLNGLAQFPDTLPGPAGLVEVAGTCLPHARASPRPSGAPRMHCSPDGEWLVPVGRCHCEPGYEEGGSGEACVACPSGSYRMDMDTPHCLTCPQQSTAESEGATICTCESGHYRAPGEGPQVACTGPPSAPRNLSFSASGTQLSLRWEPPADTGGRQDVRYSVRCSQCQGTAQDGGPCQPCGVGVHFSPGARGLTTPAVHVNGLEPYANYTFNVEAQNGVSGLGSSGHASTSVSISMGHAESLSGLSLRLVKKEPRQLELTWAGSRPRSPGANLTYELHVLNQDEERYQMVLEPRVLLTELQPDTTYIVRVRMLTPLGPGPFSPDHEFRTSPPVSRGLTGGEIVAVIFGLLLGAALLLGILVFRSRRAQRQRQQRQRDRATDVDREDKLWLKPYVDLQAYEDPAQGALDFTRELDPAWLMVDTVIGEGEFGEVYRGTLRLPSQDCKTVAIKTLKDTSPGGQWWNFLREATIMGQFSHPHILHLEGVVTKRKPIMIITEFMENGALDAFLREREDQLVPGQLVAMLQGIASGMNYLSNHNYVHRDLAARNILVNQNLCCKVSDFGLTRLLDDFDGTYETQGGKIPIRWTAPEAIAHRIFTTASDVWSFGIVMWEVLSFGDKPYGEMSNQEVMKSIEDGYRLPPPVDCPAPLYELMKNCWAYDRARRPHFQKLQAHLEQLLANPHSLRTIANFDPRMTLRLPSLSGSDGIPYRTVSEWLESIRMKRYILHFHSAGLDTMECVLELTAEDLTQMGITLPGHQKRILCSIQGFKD
In words: Inhibition of human EPHA1 at 18.6 nM by HotSpot assay relative to control.

Assay [3] has as its target Insulin receptor-related protein (Homo sapiens) (UniProt P14616). In words: Inhibition of human IRR at 18.6 nM by HotSpot assay relative to control.
The target in assay [4] is Serine/threonine-protein kinase pim-2 (Homo sapiens) (UniProt Q9P1W9). Briefly: Inhibition of human PIM2 at 18.6 nM by HotSpot assay relative to control.
Assay [5] has as its target Tyrosine-protein kinase BTK (Homo sapiens) (UniProt Q06187). In words: Inhibition of human BTK at 1.82 nM by HotSpot assay relative to control.

Chain of Insulin receptor-related protein (Homo sapiens) (P14616 27-742 limits assumed): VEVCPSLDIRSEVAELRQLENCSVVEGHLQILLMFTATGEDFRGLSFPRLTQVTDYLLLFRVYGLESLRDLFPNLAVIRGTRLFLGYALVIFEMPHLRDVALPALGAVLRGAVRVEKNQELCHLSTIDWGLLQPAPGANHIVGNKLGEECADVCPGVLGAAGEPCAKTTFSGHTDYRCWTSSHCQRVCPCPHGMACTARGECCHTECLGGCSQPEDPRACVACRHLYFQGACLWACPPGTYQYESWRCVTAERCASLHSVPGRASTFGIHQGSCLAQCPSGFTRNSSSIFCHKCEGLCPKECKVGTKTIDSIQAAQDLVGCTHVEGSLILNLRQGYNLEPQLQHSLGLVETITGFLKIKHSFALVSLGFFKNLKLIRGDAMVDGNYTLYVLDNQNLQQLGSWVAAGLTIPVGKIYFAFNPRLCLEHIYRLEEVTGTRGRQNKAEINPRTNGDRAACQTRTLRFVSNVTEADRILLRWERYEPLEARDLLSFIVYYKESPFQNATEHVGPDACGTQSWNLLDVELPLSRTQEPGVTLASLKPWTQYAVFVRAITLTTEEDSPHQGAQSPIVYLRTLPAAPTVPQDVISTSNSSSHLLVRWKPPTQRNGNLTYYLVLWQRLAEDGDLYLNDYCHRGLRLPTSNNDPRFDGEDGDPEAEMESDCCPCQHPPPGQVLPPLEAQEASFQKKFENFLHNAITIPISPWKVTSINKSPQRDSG
Chain of Insulin receptor-related protein (Homo sapiens) (P14616 747-1297 limits assumed): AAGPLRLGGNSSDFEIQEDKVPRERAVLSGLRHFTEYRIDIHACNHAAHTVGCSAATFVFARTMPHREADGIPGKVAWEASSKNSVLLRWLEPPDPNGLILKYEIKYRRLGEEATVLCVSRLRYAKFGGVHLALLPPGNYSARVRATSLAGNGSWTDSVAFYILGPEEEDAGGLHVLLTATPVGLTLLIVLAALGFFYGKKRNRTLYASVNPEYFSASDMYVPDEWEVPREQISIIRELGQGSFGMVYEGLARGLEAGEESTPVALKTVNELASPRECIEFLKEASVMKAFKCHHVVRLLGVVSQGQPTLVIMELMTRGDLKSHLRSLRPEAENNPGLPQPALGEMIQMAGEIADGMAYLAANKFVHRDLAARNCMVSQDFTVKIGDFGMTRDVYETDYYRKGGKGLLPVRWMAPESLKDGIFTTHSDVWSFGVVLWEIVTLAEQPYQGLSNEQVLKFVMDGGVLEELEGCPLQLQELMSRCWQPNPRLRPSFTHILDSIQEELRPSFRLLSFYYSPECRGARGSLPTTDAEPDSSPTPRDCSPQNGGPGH
Chain of Serine/threonine-protein kinase pim-2 (Homo sapiens) (Q9P1W9 whole entry, looked up): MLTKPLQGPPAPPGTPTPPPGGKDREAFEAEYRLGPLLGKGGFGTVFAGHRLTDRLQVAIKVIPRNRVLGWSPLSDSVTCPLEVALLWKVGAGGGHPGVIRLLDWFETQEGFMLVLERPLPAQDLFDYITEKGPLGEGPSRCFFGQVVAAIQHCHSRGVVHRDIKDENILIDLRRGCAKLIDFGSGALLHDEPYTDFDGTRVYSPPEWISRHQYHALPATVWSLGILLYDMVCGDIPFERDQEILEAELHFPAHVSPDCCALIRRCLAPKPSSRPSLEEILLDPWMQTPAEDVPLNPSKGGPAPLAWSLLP
Chain of Tyrosine-protein kinase BTK (Homo sapiens) (Q06187 whole entry): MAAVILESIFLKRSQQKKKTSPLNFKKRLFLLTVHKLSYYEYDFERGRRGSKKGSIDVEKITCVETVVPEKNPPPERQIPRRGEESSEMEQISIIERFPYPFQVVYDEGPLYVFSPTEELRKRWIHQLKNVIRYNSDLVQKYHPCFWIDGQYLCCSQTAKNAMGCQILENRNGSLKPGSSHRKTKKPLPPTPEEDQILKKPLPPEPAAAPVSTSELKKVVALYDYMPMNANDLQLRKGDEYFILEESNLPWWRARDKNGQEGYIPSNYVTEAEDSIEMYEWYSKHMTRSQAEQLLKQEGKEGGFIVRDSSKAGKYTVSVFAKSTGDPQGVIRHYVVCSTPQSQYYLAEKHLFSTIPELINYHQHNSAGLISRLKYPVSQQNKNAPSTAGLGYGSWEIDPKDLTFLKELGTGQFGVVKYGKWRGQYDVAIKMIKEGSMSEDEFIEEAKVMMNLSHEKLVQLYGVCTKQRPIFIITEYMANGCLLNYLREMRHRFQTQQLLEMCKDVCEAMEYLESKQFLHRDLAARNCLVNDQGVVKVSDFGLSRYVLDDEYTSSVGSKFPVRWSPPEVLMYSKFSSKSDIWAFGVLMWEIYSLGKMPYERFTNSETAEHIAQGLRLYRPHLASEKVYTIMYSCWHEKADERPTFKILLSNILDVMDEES

One may read the inhibition as the drop in the measured response relative to a control, in per cent. Regarding `C[C@]1(O)C[C@@H](c2nc(-c3ccc4ccc(-c5ccccc5)nc4c3)c3c(N)nccn32)C1`, the inhibition in assay [1] is -8.46%; in assay [2] it was -4.97%; in assay [3] it was 100%; in assay [4] it was -9.03%.

Turning to `C[C@@]1(C(=O)Nc2ccc(F)nc2)CCCN1c1nc(Nc2cc(C3CC3)n[nH]2)c2cccn2n1`, the inhibition in assay [5] turned out to be 4.42%.

Source of the values: ChEMBL document CHEMBL5653615 (J Biol Chem, 2013).
